Assay results taken from ChEMBL document CHEMBL1201862, “PubChem BioAssay data set” (2004).
The source made the active and inactive calls.

What was measured:
[1] = HIV-1 AD8 envelope cell-cell fusion blockers – cherry-pick, dose response (AID 652062); type: functional, cell-based;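 further: luciferase signal from cell-cell fusion driven by HIV-1 clade B AD8 Env; potency is for inhibitors of fusion seen as a drop in luminescence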
[2] = blockers of HIV-1 ZM109 envelope-driven cell-cell fusion – HeLa effector, CEM target cells, luciferase, cherry-pick, dose response (AID 652058); type: functional, cell-based;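 further: luciferase signal from HIV-1 Env mediated cell-cell fusion of effector and target cells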
[3] = blockers of HIV-1 envelope-mediated cell-cell fusion – cherry-pick, dose response (AID 652057); type: functional, cell-based
Cytochrome P450 1A2 = target: T1, Cytochrome P450 1A2 (Homo sapiens, UniProt P05177);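 further: PubChem cytochrome P450 panel assay, CYP1A2 panel member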
T1 sequence (P05177 whole entry): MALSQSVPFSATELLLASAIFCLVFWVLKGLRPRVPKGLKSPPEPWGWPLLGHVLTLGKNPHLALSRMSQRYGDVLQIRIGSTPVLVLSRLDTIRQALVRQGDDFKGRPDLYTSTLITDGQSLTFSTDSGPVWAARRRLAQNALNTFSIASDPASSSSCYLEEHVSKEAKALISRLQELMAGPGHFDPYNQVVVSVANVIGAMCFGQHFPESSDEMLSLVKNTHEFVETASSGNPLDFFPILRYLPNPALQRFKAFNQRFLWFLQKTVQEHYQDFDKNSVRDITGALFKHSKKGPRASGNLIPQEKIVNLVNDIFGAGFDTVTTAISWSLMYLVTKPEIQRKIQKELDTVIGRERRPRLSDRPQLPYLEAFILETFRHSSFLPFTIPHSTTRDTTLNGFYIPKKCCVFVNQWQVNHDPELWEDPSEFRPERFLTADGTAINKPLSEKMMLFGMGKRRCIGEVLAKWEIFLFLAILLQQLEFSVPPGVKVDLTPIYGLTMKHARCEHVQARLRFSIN

[4] = off-target signal loss in HeLa-CEM21 co-culture – HeLa F-luc CTL cells, cherry-picked, counter-screen for HIV-1 Env fusion inhibitor project, dose response (AID 652040); type: functional, cell-based;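 further: potency for signal decrease marking cytotoxic or nonspecific inhibition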
[5] = target: T2, Zinc finger protein mex-5 (Caenorhabditis elegans, UniProt Q9XUB2); assay: potency of MEX-5 RNA-binding blockers – biochemical, C. elegans, fluorescence polarization, dose response (AID 1960)
T2 sequence (Q9XUB2 whole entry): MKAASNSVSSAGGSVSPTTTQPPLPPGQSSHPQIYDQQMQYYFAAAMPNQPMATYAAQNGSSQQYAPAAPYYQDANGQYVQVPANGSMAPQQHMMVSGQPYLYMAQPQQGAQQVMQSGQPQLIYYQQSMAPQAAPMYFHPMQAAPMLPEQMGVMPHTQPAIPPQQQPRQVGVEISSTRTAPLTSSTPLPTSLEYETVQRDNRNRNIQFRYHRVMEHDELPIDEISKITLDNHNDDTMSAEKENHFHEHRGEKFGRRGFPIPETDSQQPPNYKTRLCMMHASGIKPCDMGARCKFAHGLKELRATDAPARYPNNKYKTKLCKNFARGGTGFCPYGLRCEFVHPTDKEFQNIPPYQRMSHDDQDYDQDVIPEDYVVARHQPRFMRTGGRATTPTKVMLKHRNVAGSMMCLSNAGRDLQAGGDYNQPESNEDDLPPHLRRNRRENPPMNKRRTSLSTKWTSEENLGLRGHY

[6] = target: T3, Endoribonuclease toxin MazF (Escherichia coli K-12, UniProt P0AE70); assay: activation of MazEF endoribonuclease cleavage – biochemical, fluorescence, single-stranded RNA substrate, uHTS hits, dose response (AID 588481); type: functional
T3 sequence (P0AE70 whole entry): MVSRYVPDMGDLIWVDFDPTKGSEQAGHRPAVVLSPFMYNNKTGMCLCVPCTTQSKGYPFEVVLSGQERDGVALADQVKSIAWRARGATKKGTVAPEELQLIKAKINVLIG

[7] = target: T3, Endoribonuclease toxin MazF; assay: substrate-only fluorescence increase artefacts – biochemical, single-stranded RNase substrate, counter-screen for MazEF activator project, dose response (AID 588502); type: functional
[8] = target: T4, RNA-binding protein pos-1 (Caenorhabditis elegans, UniProt G5EF15); assay: disruptors of C. elegans POS-1 RNA interaction – biochemical, fluorescence polarization, dose response (AID 1964);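 further: purified POS-1 fused to maltose binding protein made in E. coli; potency of compounds blocking POS-1 binding to fluorescent RNA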
T4 sequence (G5EF15 whole entry): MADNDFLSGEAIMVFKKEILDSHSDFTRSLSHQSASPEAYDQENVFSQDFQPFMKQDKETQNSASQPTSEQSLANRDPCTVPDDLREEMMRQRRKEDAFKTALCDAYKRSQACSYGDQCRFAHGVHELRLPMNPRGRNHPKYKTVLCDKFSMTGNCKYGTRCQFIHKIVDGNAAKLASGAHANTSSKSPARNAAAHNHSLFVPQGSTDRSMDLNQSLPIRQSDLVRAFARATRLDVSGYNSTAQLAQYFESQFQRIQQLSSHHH

[9] = blockade of melanocortin 4 receptor signaling – cell-based, plate reader, cherry pick, counter-screen for LGR2 antagonist project, dose response (AID 743444); type: functional;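 further: transfected HEK 293 cells stimulated with alpha-MSH peptide; potency of inhibitors of the alpha-MSH evoked signal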
[10] = toxicity toward HepG2 liver cells – cell-based, plate reader, cherry-pick, antagonist series, cytotoxicity control, dose response (AID 743416); type: functional
[11] = A549 cell cytotoxicity, dose response, cytotoxicity control, plate reader, cherry-pick, antagonist series (AID 743412); type: functional, cell-based
[12] = blockers of bursicon-stimulated LGR2 cAMP reporter – cell-based, HEK293, CRE-luciferase reporter, cherry pick, set 2, dose response (AID 743343); type: functional;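 further: transfected cells were stimulated with diluted bursicon conditioned medium after compound addition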
[13] = target: T5, Calpain-2 catalytic subunit (Sus scrofa, UniProt P43367); assay: m-calpain protease blockers, concentration series – biochemical, fluorogenic peptide substrate, dose response (AID 1420); type: functional
T5 sequence (P43367 whole entry): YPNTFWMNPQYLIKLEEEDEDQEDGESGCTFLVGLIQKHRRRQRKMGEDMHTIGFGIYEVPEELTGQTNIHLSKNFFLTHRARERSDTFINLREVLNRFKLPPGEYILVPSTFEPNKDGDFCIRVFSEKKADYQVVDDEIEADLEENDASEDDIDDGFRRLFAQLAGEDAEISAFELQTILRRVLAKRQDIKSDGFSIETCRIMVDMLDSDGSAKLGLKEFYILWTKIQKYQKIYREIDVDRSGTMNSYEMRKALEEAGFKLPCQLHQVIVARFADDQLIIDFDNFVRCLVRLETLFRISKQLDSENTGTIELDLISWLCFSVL

[14] = target: T6, Replicative DNA helicase DnaB (Mycobacterium tuberculosis, UniProt P9WMR3); assay: DnaB intein splicing inhibitors, dose response, biochemical, cell-free fluorescence (AID 449749); type: functional
T6 sequence (P9WMR3 whole entry): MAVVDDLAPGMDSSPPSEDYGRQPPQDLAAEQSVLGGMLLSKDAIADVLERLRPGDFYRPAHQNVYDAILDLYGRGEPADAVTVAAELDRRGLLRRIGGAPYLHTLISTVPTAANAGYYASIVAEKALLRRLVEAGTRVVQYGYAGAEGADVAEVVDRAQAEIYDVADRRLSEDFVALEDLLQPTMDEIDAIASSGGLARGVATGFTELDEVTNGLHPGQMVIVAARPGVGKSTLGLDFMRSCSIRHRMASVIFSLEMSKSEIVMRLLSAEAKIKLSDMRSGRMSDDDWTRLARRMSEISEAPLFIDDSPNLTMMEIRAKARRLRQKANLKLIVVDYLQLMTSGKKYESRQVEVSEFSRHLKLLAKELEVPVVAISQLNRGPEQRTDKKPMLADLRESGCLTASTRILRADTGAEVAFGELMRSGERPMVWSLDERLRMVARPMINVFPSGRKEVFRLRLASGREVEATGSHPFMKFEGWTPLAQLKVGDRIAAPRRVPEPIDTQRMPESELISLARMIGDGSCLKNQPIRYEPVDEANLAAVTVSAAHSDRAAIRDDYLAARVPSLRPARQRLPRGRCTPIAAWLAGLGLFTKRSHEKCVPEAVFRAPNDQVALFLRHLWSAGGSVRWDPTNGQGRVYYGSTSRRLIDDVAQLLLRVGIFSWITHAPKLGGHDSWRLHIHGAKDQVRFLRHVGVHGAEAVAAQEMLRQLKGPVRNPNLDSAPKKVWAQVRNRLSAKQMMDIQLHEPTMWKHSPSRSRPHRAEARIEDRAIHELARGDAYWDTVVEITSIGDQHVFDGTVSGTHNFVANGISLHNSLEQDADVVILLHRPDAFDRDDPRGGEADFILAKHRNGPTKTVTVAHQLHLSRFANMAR

Protein RecA = target: T7, Protein RecA (Mycobacterium tuberculosis, UniProt P9WHJ3); assay: Fluorescence Cell-Free Homogeneous Dose Retest to Identify Inhibitors of RecA-Intein Splicing Activity. [Related pubchem assays (depositor defined):AID2097, AID2223, AID489010, AID492950]; type: functional
T7 sequence (P9WHJ3 whole entry): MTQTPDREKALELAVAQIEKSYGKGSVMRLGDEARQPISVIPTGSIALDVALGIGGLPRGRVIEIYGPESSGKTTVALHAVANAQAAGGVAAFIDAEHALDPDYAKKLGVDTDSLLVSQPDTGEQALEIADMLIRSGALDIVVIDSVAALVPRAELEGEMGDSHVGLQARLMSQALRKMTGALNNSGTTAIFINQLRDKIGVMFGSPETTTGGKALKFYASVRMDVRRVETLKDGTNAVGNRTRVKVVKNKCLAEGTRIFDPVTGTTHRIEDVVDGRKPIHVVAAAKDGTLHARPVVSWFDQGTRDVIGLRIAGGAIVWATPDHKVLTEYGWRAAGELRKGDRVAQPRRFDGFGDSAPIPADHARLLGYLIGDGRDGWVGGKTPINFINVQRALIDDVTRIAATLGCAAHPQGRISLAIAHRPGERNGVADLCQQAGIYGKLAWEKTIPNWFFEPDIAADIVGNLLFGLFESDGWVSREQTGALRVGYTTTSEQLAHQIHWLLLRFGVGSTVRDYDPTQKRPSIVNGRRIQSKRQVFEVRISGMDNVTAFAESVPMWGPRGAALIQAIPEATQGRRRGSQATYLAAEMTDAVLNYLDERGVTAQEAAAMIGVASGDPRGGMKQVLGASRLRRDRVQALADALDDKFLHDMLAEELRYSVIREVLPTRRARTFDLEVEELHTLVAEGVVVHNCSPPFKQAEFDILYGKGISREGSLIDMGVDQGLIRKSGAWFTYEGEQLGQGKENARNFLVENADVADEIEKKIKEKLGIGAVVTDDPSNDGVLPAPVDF

[15] = P. falciparum Dd2 growth inhibitors, dose response, SYBR Green, cherry-picked samples (AID 1159567); type: functional, cell-based
[16] = target: Eukaryotic translation initiation factor 4E (Mus musculus, UniProt P63073); assay: blockers of eIF4G binding by eIF4E – biochemical, TR-FRET, dose response (AID 855); type: functional;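 further: potency for disrupting eIF4E binding to eIF4GI seen as loss of FRET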
Chain of Eukaryotic translation initiation factor 4E (P63073 whole entry): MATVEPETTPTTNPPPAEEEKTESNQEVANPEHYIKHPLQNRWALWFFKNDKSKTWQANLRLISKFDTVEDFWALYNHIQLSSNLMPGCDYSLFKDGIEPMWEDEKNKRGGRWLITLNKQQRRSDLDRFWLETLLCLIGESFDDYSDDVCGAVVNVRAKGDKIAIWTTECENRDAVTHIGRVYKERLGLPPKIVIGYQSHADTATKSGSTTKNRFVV

## O=C(NC1CCCCC1)C(c1cccs1)N(Cc1cccs1)C(=O)c1ccco1 (centres undefined)
[1]
  AC50: 1.55 µM (active)
[2]
  AC50: 5.68 µM (active)
[3]
  AC50: 6.72 µM (active)
Cytochrome P450 1A2
  AC50: 20 µM (inconclusive)
[4]
  AC50: 48.2 µM (active)

## COc1ccc(-c2c(C)nn3c(C(F)(F)F)cc(C)nc23)cc1
[4]
  AC50: 17.8 µM (active)

## COc1ccc2c(c1)S/C(=C\C(=O)c1ccncc1)N2C
[5]
  EC50: > 300 µM (not active)
[6]
  EC50: > 99 µM (inactive)
[7]
  EC50: > 99 µM (inactive)
[8]
  EC50: > 300 µM (not active)

## CCN(Cc1nc(O)c2ccc(Cl)cc2n1)C(=O)c1cc(C2CC2)nn1-c1ccccc1
[1]
  AC50: 4.62 µM (active)
[2]
  AC50: 5.14 µM (active)
[3]
  AC50: 2.67 µM (active)
[4]
  AC50: 6.32 µM (active)

## C[C@H]1CN([C@@H](C)CO)S(=O)(=O)c2ccc(Br)cc2O[C@H]1CN(C)Cc1ccc(F)cc1
[1]
  AC50: 30.9 µM (active)
[2]
  AC50: 5.86 µM (active)
[3]
  AC50: 3.67 µM (active)

## O=C(Nc1ccccc1)c1nn(-c2ccccc2)c(=O)cc1C(F)(F)F
[5]
  EC50: > 300 µM (not active)
[6]
  EC50: > 99 µM (inactive)
[7]
  EC50: > 99 µM (inactive)
[8]
  EC50: > 300 µM (not active)

## CCCNC(=O)Nc1ccc2c(c1)C(=O)N(C)C[C@H](OC)[C@H](C)CN(Cc1ccc(-c3ccccn3)cc1)[C@@H](C)CO2
[9]
  AC50: 55.8 µM (active)
[10]
  AC50: 44 µM (active)
[11]
  AC50: 26.4 µM (active)
[12]
  AC50: 50.8 µM (active)

## CCN(CC)S(=O)(=O)c1ccc2oc(C(=O)NCc3ccc(C)cc3)c(C)c2c1
[13]
  IC50: 26.3 µM (not active)

## CCOc1ccccc1Nc1nnc(Cc2ccccc2Cl)c(O)n1
[14]
  AC50: > 380 µM (inactive)
Protein RecA
  EC50: 21 µM (active)
[13]
  IC50: > 50 µM (not active)

## Cc1c(=O)n(OCc2ccccc2F)c2ccccc2[n+]1[O-]
[13]
  IC50: 25.6 µM (not active)

## Cc1ccoc1C(=O)Nc1ccc2ccccc2c1
[9]
  AC50: 9.34 µM (active)
[10]
  AC50: 40 µM (active)
[11]
  AC50: > 52 µM (inactive)
[12]
  AC50: 7.48 µM (active)

## Cc1ccccc1S(=O)(=O)N1[C@H](C#N)[C@@H](c2ccc(C#CC3CC3)cc2)[C@@H]1CO
[15]
  AC50: 4.69 µM (active)

## CSc1nnc(N2C(=O)C(O)=C(C(=O)c3ccc(C)o3)C2c2ccc(C)cc2)s1 (centres undefined)
[6]
  EC50: 9.87 µM (active)
[7]
  EC50: > 99 µM (inactive)

## Cc1nc(SCC(=O)Nc2cc(C)on2)c2c3c(sc2n1)CCCC3
[6]
  EC50: > 99 µM (inactive)
[7]
  EC50: > 99 µM (inactive)

## COc1cccc(-c2cn(CC[C@@H]3CC[C@@H](NS(=O)(=O)c4ccccc4Cl)[C@H](CO)O3)nn2)c1
[15]
  AC50: 5.86 µM (active)

## CCOC(=O)Cn1c(=O)oc2cc(S(=O)(=O)NCc3cccs3)ccc21
[16]
  IC50: > 64 µM (inactive)

## CSc1nsc(SCC(=O)N2CCc3ccccc32)n1
[16]
  IC50: > 64 µM (inactive)

## COC(=O)CC(NS(=O)(=O)c1cccs1)c1cccc2ccccc12 (centres undefined)
[13]
  IC50: > 50 µM (not active)

## Cc1cc(C)cc(NC(=O)c2ccccc2CC[N+](=O)[O-])c1
[16]
  IC50: > 64 µM (inactive)
